Activity calls are given as the source filed them.
Columns and labels:
[1] = test system: Streptococcus; experiment: Luminescence Microorganism-Based Dose Response Follow up to Identify Compounds Cytotoxic to Streptococcus. [Related pubchem assays: 1677 (Project Summary), 1915, 1914, 1902 (Retest at Dose), 1900 (Counter Screen), 1662 (Primary HTS)]; assay type: functional, organism-based
[2] = HIV-1 Env-mediated cell fusion inhibitors, dose response, CCR5-tropic Env (AID 2279); assay type: functional
[3] = test system: HEK293; experiment: cells; assay type: functional, cell-based; conditions: Homo sapiens
[4] = molecular target: Induced myeloid leukemia cell differentiation protein Mcl-1 (Homo sapiens, UniProt Q07820); assay type: functional
Chain of Induced myeloid leukemia cell differentiation protein Mcl-1 (Q07820 whole entry): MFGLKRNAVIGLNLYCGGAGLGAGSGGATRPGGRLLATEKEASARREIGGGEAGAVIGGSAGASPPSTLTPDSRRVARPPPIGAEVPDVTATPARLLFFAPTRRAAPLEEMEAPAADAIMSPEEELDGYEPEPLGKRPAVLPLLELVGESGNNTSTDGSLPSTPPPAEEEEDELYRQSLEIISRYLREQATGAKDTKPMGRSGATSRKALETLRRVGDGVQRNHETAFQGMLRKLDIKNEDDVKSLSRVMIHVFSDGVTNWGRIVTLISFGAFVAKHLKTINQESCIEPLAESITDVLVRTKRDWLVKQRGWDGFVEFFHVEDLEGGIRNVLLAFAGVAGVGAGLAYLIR

[5] = test system: Vero; experiment: Vero cell cytotoxicity, cytotoxicity control for flavivirus capping enzyme inhibitors (AID 588742); assay type: functional; conditions: Chlorocebus sabaeus
[6] = test system: HEK293; experiment: NOD1 signaling inhibitors, primary screen, cell-based, luminescence, uHTS (AID 1578); assay type: functional; conditions: Homo sapiens
[7] = molecular target: T1, Histone-lysine N-methyltransferase NSD2 (Homo sapiens, UniProt O96028); assay type: biochemical
T1 sequence (O96028 whole entry): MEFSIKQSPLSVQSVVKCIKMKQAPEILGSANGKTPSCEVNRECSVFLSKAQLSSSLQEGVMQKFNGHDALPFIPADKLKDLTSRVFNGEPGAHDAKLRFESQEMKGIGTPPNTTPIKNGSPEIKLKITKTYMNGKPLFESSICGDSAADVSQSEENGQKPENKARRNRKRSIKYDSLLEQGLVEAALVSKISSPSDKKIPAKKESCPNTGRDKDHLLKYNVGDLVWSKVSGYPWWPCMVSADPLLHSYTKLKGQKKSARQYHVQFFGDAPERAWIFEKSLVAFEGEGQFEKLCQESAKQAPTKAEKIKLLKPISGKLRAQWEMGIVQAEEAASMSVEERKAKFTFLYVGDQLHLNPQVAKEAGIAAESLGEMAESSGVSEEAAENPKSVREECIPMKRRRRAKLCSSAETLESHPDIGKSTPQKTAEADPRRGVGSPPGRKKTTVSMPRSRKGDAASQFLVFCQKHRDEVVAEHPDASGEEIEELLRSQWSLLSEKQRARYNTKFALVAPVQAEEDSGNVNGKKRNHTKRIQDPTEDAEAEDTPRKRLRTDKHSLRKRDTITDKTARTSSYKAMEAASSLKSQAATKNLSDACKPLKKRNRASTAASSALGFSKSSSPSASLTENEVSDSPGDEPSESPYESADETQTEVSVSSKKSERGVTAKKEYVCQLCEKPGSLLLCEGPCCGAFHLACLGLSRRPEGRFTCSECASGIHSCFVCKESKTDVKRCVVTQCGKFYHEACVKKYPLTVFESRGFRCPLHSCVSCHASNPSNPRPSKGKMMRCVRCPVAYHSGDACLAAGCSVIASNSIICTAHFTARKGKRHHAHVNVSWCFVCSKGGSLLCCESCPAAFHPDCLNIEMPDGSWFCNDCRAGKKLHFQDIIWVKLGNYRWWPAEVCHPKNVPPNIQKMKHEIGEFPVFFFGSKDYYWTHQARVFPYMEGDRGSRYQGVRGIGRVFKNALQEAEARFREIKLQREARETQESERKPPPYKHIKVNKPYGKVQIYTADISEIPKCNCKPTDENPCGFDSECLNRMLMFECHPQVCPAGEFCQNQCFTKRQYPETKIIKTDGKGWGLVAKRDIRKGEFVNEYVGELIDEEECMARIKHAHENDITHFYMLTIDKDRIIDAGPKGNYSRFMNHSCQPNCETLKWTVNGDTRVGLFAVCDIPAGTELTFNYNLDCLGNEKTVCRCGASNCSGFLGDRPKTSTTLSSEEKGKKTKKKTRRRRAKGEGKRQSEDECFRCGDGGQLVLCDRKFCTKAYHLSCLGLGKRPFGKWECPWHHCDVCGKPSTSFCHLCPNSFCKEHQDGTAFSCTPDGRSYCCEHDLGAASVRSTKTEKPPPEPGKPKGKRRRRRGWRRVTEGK

[8] = molecular target: Nonstructural protein 1 (Influenza A virus, UniProt Q194T2); assay type: functional, Influenza A virus (A/California/07/2009(H1N1))
Chain of Nonstructural protein 1 (Q194T2 whole entry): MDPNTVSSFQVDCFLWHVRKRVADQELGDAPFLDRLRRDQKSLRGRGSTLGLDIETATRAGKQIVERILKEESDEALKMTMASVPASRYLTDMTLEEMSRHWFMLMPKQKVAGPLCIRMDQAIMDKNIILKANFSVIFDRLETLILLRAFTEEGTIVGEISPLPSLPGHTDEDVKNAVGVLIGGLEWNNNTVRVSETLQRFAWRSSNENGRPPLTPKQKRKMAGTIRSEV

[9] = molecular target: Transitional endoplasmic reticulum ATPase (Homo sapiens, UniProt P55072, C522A); experiment: C522A mutant p97 ATPase inhibitors, dose response, counter-screen for p97 inhibitor project, biochemical, luminescence (AID 1544)
Chain of Transitional endoplasmic reticulum ATPase (Homo sapiens, UniProt P55072, C522A) (P55072 2-806 C522A limits assumed): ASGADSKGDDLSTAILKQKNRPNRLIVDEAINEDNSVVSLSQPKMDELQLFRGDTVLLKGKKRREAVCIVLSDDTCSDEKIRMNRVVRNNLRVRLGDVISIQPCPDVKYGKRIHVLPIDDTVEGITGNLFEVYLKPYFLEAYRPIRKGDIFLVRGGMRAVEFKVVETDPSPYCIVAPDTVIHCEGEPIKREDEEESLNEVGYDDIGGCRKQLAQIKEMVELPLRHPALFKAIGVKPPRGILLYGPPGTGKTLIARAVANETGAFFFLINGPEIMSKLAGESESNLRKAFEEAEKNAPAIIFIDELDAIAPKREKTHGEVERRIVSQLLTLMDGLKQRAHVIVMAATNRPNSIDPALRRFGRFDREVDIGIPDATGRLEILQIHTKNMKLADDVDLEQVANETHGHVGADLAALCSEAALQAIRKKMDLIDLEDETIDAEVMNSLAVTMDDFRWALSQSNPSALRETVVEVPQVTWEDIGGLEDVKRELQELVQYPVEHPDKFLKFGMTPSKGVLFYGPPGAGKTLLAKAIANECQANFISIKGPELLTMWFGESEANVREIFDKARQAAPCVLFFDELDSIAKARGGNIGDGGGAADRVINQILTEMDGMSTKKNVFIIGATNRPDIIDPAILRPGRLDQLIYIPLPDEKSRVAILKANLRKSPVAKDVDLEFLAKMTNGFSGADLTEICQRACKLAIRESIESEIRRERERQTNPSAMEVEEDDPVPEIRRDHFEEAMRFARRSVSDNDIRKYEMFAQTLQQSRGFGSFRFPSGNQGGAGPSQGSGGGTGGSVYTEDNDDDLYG

[10] = test system: HEK293; experiment: cells; assay type: functional, cell-based; conditions: Homo sapiens; remark: listed apart in the source
[11] = molecular target: Transitional endoplasmic reticulum ATPase (Homo sapiens, UniProt P55072); experiment: p97 ATPase inhibitors, dose response, biochemical (AID 1534)
Chain of Transitional endoplasmic reticulum ATPase (Homo sapiens, UniProt P55072) (P55072 whole entry): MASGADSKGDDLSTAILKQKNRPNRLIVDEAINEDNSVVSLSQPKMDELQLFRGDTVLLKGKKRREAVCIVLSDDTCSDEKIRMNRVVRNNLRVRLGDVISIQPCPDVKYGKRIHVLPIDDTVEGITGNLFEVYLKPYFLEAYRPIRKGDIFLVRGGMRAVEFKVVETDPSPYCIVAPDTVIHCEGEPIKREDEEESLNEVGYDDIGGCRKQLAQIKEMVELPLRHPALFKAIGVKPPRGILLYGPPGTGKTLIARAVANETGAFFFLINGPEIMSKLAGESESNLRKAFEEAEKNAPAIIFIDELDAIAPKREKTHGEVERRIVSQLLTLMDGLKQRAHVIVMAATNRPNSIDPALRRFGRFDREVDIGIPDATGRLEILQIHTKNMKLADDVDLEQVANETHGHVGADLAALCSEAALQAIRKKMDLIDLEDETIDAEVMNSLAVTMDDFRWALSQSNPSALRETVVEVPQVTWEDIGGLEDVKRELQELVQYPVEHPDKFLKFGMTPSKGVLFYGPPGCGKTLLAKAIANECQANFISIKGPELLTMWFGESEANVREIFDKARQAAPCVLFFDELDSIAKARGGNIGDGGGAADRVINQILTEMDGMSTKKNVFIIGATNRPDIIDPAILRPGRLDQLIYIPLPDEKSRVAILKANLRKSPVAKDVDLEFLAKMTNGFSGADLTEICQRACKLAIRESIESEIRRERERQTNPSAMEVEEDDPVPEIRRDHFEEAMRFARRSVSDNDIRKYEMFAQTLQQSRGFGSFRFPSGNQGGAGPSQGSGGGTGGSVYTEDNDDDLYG

[12] = test system: HEK293; experiment: NOD2 signaling inhibitors in MDP-stimulated cells, cell-based, uHTS, luminescence (AID 2001); assay type: functional; conditions: Homo sapiens
[13] = molecular target: Genome polyprotein (dengue virus type 2, UniProt P29990); experiment: Dengue-2 NS5 methyltransferase inhibitors, primary screen, biochemical, confirmation dose response (AID 588689); assay type: functional
Chain of Genome polyprotein (P29990 2492-3391 limits assumed): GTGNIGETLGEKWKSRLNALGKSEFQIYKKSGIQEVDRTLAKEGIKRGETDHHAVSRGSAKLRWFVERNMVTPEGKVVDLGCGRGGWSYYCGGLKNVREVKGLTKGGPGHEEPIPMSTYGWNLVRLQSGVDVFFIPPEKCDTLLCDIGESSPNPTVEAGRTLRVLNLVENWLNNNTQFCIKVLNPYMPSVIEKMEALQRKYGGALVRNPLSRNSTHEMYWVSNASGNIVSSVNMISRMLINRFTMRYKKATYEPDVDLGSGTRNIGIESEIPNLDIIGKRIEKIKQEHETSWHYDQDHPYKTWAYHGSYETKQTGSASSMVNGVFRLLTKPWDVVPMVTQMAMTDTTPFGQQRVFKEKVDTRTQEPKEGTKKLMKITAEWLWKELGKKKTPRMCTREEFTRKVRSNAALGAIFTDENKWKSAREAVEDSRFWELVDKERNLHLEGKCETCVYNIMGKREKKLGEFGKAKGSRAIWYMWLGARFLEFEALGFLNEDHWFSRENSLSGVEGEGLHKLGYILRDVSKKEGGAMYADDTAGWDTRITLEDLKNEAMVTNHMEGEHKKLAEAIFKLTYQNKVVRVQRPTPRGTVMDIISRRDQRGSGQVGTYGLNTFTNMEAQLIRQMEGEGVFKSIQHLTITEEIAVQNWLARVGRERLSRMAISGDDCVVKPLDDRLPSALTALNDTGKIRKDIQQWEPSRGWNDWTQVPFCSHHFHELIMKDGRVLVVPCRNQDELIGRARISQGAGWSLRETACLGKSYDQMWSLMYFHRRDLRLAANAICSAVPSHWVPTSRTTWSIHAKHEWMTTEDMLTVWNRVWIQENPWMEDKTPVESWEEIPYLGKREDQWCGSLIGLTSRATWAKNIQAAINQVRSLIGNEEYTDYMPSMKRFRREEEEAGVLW

[14] = molecular target: T2, Insulin-degrading enzyme (Homo sapiens, UniProt P14735); experiment: Dose Response: Fluorescence polarization-based cell-based high throughput dose response assay for inhibitors of insulin-degrading enzyme (IDE). [Related pubchem assays: 434962 (Primary screen (IDE inhibitors in singlicate)), 449730 (Counterscreen (Cytotoxicity in triplicate)), 435028 (Confirmation (IDE inhibitors in triplicate)), 434984 (Summary …; assay type: functional
T2 sequence (P14735 whole entry): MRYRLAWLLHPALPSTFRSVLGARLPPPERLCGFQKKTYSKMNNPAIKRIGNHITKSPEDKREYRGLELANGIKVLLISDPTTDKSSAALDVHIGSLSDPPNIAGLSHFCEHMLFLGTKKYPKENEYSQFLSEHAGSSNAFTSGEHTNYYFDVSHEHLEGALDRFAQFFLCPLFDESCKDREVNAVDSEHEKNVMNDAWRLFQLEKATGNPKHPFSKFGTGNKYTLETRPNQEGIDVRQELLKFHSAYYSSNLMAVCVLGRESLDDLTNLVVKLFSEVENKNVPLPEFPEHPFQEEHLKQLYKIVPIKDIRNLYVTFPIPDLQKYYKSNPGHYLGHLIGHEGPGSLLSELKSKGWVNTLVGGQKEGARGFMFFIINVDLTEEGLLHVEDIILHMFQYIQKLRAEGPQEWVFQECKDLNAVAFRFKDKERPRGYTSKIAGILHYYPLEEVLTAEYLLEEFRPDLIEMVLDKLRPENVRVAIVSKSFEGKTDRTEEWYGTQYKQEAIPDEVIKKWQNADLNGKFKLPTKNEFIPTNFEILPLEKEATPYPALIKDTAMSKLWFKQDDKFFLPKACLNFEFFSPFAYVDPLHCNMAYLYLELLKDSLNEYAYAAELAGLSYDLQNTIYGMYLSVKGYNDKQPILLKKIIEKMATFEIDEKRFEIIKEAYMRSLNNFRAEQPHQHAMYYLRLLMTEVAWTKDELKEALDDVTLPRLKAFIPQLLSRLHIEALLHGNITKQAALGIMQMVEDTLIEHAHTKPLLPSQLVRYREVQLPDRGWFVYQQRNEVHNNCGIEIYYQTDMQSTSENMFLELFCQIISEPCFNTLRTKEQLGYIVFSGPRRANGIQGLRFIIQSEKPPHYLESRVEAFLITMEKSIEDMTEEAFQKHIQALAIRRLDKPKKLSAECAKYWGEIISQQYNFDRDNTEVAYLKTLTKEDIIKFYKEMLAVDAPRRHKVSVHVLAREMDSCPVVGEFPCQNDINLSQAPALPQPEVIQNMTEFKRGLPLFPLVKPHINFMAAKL

[15] = enhancers of respiration in Yfh1-depleted yeast, dose response, Friedreich's ataxia, plus single-dose screen (AID 1465); assay type: functional;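 note: yeast depleted of Yfh1p frataxin homolog grown on glycerol needing respiration; WST-1 tetrazolium dye reduction as measure of cellular dehydrogenase metabolic activity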
[16] = Counterscreen for IDE inhibitors: Luminescence-based cell-based high throughput dose response assay to identify compounds that are cytotoxic to HEK cells. [Related pubchem assays: 434962 (Primary screen (IDE inhibitors in singlicate)), 449730 (Counterscreen (Cytotoxicity in triplicate)), 435028 (Confirmation (IDE inhibitors in triplicate)) …; assay type: functional; conditions: HEK293
[17] = molecular target: T3, Leucine aminopeptidase (Plasmodium falciparum 3D7, UniProt Q8IL11); experiment: P. falciparum M17LAP inhibitors, primary screen, biochemical, fluorogenic H-Leu-NHMec substrate, 1536-well (AID 1619); assay type: functional
T3 sequence (Q8IL11 whole entry): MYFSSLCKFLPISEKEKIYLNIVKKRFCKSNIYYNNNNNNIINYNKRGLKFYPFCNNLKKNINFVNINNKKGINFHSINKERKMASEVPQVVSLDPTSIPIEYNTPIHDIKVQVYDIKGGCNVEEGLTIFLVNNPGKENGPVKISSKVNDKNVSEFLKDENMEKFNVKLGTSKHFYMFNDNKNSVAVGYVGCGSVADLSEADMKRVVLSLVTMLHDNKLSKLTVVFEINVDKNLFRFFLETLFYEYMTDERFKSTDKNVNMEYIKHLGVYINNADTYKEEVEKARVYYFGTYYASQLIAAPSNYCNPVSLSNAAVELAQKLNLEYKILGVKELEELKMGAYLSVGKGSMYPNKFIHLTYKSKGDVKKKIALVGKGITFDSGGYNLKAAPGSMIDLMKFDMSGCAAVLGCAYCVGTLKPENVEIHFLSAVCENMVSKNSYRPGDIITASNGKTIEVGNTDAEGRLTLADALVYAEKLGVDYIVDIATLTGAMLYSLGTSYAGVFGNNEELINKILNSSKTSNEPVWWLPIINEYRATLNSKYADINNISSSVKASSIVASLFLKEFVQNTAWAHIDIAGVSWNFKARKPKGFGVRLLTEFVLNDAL

[18] = molecular target: T4, Eukaryotic translation initiation factor 2-alpha kinase 3 (Homo sapiens, UniProt Q9NZJ5); experiment: Counterscreen assay for PERK inhibitors: Dose response cell-based high throughput screening assay to measure inhibition of PERK at 6 hours. [Related pubchem assays: 1522, 1416 ]; assay type: functional
T4 sequence (Q9NZJ5 whole entry): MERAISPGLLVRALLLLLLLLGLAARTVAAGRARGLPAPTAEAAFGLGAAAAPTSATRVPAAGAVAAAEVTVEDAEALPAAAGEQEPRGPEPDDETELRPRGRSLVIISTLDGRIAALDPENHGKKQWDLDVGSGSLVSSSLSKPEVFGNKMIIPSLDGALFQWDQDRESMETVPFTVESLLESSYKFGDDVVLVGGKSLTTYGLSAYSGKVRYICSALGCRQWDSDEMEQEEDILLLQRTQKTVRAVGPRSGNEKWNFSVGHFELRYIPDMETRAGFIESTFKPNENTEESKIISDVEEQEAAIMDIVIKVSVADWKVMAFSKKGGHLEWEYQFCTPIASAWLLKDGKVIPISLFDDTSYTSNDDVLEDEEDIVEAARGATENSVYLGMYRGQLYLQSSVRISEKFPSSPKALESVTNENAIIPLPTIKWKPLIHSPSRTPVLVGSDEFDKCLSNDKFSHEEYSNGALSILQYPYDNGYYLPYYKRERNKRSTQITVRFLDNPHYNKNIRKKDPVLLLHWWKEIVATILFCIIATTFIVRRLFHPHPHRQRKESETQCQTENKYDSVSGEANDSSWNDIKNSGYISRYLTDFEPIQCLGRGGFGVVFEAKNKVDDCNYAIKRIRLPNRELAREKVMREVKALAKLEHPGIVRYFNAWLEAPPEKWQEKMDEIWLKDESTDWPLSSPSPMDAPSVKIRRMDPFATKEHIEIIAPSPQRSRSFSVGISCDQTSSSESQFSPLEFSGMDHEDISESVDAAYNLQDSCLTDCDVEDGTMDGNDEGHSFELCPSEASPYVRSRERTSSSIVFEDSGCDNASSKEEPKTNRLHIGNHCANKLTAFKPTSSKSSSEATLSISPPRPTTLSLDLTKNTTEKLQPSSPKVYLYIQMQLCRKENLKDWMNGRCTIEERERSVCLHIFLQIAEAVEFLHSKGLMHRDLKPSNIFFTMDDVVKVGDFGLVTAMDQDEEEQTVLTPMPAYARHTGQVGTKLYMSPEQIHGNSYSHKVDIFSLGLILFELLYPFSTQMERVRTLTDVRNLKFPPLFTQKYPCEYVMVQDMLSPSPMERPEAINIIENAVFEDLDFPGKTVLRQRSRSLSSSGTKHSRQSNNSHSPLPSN

[19] = molecular target: T4, Eukaryotic translation initiation factor 2-alpha kinase 3; experiment: Dose response cell-based high-throughput screening assay to measure PERK inhibition. [Related pubchem assays: 1416 ]; assay type: functional
[20] = molecular target: Cytochrome P450 2D6 (Homo sapiens, UniProt P10635); experiment: qHTS Assay for Inhibitors and Substrates of Cytochrome P450 2D6. [Related pubchem assays: 410 ]; assay type: ADME; conditions: read-out: Potency
Chain of Cytochrome P450 2D6 (P10635 whole entry): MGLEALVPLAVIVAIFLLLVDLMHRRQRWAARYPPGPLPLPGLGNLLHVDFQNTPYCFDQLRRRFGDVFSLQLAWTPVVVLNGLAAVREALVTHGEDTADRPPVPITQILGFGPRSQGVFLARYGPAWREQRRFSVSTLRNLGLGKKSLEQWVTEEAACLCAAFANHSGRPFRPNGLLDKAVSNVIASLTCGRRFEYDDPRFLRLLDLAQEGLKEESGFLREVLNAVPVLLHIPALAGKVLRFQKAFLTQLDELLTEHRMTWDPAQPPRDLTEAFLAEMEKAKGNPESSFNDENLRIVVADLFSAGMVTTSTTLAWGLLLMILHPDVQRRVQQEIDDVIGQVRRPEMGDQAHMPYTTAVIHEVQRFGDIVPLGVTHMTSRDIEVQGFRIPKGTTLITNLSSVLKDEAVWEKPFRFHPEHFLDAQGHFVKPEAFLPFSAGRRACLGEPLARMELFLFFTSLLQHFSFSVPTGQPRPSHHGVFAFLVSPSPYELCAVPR

[21] = A Cell Based Secondary Assay To Explore Cytotoxicity of Compounds that Sensitize Mycobacterium Tuberculosis to Beta-Lactam Antibiotics.; assay type: functional
[22] = molecular target: Melanin-concentrating hormone receptor 1 (Homo sapiens, UniProt Q99705); experiment: Fluorescence-based counterscreen for antagonists of the G-protein coupled receptor 7 (GPR7): cell-based high throughput dose response assay to identify antagonists of the melanin-concentrating hormone receptor 1 (MCHR1).; assay type: functional
[23] = inhibitors of intracellular T. cruzi replication, confirmation, NIH3T3 host cells, beta-gal luminescence (AID 2044); assay type: functional, cell-based;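 note: intracellular parasites grown in NIH/3T3 mouse fibroblasts as host cells; luminescent beta-galactosidase reporter signal from transgenic T. cruzi replicating inside host cells; inhibitors lower the luminescence signal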
[24] = molecular target: T5, Neuropeptides B/W receptor type 1 (Homo sapiens, UniProt P48145); experiment: Fluorescence-based dose response cell-based high throughput screening assay to identify antagonists of the G-protein coupled receptor 7 (GPR7). [Related pubchem assays: 1952 (Screening assay (GPR7 antagonists).), 1880 (Summary AID.)]; assay type: functional
T5 sequence (P48145 whole entry): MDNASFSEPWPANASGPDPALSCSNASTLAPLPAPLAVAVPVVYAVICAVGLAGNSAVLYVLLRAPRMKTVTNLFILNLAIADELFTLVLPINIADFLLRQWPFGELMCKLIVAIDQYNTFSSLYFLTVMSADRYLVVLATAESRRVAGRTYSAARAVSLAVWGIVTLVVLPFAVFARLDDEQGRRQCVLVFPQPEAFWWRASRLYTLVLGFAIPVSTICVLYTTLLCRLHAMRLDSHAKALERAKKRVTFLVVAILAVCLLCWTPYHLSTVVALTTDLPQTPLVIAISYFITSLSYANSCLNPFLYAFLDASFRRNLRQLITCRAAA

[25] = cytotoxicity toward NIH3T3 fibroblasts, dose response, counter-screen, cell-based, ATP luminescence, mouse fibroblasts (AID 2010); assay type: functional;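 note: cells exposed to compound for about 90 hours before reading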
[26] = molecular target: Lysosomal acid glucosylceramidase (Homo sapiens, UniProt P04062); experiment: Dose response cell-based high throughput screening assay to identify enhancers of beta-glucosidase activity. [Related pubchem assays: 784 ]; assay type: functional

## CN(C)C1C(=O)C(C(N)=O)C(=O)C2(O)C(=O)C3C(=O)c4c(O)cccc4C(C)(O)C3CC12 (stereo unspecified)
[1]
  EC50: 0.402 µM (active)

## CCn1nc([N+](=O)[O-])c(C(C#N)c2nc3cc(C(F)(F)F)ccc3s2)c(Cl)c1=O (stereo unspecified)
[2]
  IC50: 11.9 µM (active)
[3]
  IC50: 2.78 µM (active)
[4]
  IC50: 3.87 µM (active)
[5]
  CC50: > 40 µM (active)
[6]
  EC50: 6.94 µM (active)
[7]
  AC50: 19 µM (active)
[8]
  IC50: 19.9 µM (active)
[9]
  IC50: > 50 µM (not active)
[10]
  IC50: 11 µM (active)
[11]
  IC50: > 50 µM (not active)
[12]
  IC50: 3.47 µM (inactive)
[13]
  IC50: 57.5 µM (active)

## C=CCN1C=CC(=CC=C(C#N)C#N)C=C1
[14]
  IC50: 10.4 µM (not active)
[15]
  EC50: > 100 µM (active)
[16]
  IC50: > 55.7 µM (not active)
[17]
  IC50: 72.2 µM (active)

## Cc1cscc1NC(=O)/C=C/C(=O)O
[18]
  EC50: > 55.7 µM (not active)
[19]
  EC50: > 55.7 µM (not active)

## CCOC(=O)OCC1OC(C#Cc2ccccc2)C=CC1Oc1cccc(N(C)C)c1 (stereo unspecified)
[20]
  AC50: 3.98 µM (inconclusive)

## O=C(CSc1nnc(SCc2ccccc2)s1)N/N=C/c1ccc(Cl)cc1Cl
[21]
  CC50: 38.4 µM (active)

## CC(C)C(=O)N1CCN(c2ccccc2NC(=O)c2ccc([N+](=O)[O-])o2)CC1
[22]
  IC50: 64.4 µM (not active)
[23]
  EC50: 0.431 µM (active)
[24]
  IC50: > 43.8 µM (not active)
[25]
  EC50: > 60 µM (not active)

## CCOC(=O)N1CCC2(CC1)C(C#N)=C(N)Oc1c2c(C)nn1-c1cccc(Cl)c1
[26]
  EC50: > 10 µM (not active)

— ChEMBL document CHEMBL1201862, “PubChem BioAssay data set” (2004)
